Measured values taken from PubChem BioAssay AID463199 (Broad Institute, 2010).
The source made the active and inactive calls.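 How the source made its calls: active means AC50, the dose giving half-maximal effect, exceeds a fixed cutoff for a compound that rescues yeast growth under heat; inactive means the rest, inconclusive results apart.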

Test system: S. cerevisiae Burl-1 ts mutant growth, BacTiter-Glo, 38.5C 24 h
Assay: growth induction of Burl-1 ts yeast mutant, dose response, counter-screen for SUMOylation pathway inhibitor project, whole organism, S. cerevisiae, luminescence (AID 463199)

Structure (SMILES)	AC50
CCOC(=O)c1nc(Nc2ccccc2CC)c2ccccc2n1	> 42 µM (inactive)
COC(=O)c1ccc(Cn2cc(Cl)cn2)cc1	> 42 µM (inactive)
COc1cc2c(cc1OC)C(c1ccccc1C)CC(=O)N2 (stereo unspecified)	> 42 µM (inactive)
O=C(CCl)N(Cc1cc(=O)[nH]c2ccccc12)c1ccccc1	> 42 µM (inactive)
CC1(C)Cc2c(c(N3CCCC3)nc3sc4c(N5CCN(CCO)CC5)ncnc4c23)CO1	> 42 µM (inactive)
O=C(COC(=O)COc1ccccc1Cl)Nc1ccccc1OC(F)F	> 42 µM (inactive)
Cc1ccc(NC(=O)Cn2sc3nc(C)cc(C)c3c2=O)c(Cl)c1	> 42 µM (inactive)
COCCCNC(=O)c1cc(C(=O)c2c(-c3c(Cl)cccc3Cl)noc2C)c[nH]1	> 42 µM (inactive)
CCOc1ccc(N(C(C)C(=O)NC(C)CC)S(C)(=O)=O)cc1 (stereo unspecified)	> 42 µM (inactive)
COc1ccc(-c2nnc(SCC(C)C)o2)cc1	> 42 µM (inactive)
O=C(O)c1ccc(CNC(=O)c2ccccc2NC(=O)c2ccc([N+](=O)[O-])cc2)cc1	> 42 µM (inactive)
Cc1cc(S(=O)(=O)N2CCCCC2CCNC(=O)C(=O)NCC2CCCO2)ccc1F (stereo unspecified)	> 42 µM (inactive)
Cn1c(C(=O)NCCc2ccsc2)cc2c(=O)n(C)c3ccccc3c21	> 42 µM (inactive)
Cc1ccc(NC(=O)NNC(=O)Cn2nc(-c3ccccc3)c(-c3ccccc3)c(C#N)c2=O)cc1	> 42 µM (inactive)
CCN(CC1COc2ccccc2O1)C(=S)NCCCN(C)C (stereo unspecified)	> 42 µM (inactive)
O=C(CCCNC(=O)/C(=C/c1ccccc1F)NC(=O)c1ccccc1)OCc1ccccc1	> 42 µM (inactive)
COc1ccccc1CC(=O)N1CCOCC1	> 42 µM (inactive)
CCOC(=O)c1sc2ncn(C(CC)C(=O)OCC)c(=O)c2c1C (stereo unspecified)	> 42 µM (inactive)
N#CC1=C(N)Oc2n[nH]c(CSc3ccccc3)c2C12C(=O)Nc1ccccc12 (stereo unspecified)	> 42 µM (inactive)
O=C1N=C(N2CCN(c3ccccc3)CC2)SC1Cc1ccccc1 (stereo unspecified)	> 42 µM (inactive)
COc1ccc(C(=O)CC(=O)C(=O)Nc2ccc(C)c(Cl)c2)cc1	> 42 µM (inactive)
O=S(=O)(NCc1cccc(C(F)(F)F)c1)NCc1ccccc1F	> 42 µM (inactive)
O=C(c1ccco1)N1CCN(C(=O)C2Cc3ccccc3CN2S(=O)(=O)c2ccc(F)cc2)CC1 (stereo unspecified)	> 42 µM (inactive)
COC(=O)C1=C(C)N(Cc2ccccc2)C(=S)N[C@H]1c1cccc(F)c1	> 42 µM (inactive)

Structure (SMILES)	AC50
CC1=C(C(=O)OCc2ccccc2)C(c2cccc(F)c2)NC(=O)N1 (stereo unspecified)	> 42 µM (inactive)
Cc1sc(NC(=O)c2ccco2)c(C(c2ccc(F)cc2)N2CCN(C)CC2)c1C (stereo unspecified)	> 42 µM (inactive)
COc1ccc(C)cc1NC(=O)Cn1c(=O)oc2ccccc21	> 42 µM (inactive)
COC(=O)c1ccc(NC(=O)CCN2CCN(c3ccccc3)CC2)cc1	> 42 µM (inactive)
COc1cccc(CNC(=O)CCCn2nc(C)c3c(C)n(-c4ccccc4)nc3c2=O)c1	> 42 µM (inactive)
CC(C)n1c(CN(C)c2ccccc2)nc2ccccc21	> 42 µM (inactive)
O=C(c1cc(N2C(=O)C3C4CCC(C4)C3C2=O)ccc1Cl)N1CCN(c2ccccc2)CC1 (stereo unspecified)	> 42 µM (inactive)
CCC(c1nnnn1C1CCCC1)N1CCN(c2cccc(OC)c2)CC1 (stereo unspecified)	> 21 µM (inactive)
OCC[C@@H]1C[C@H](O)[C@@H](O)[C@]2(CCc3ccccc3CO2)O1	> 42 µM (inactive)
CC(C)N(C(=S)Nc1cccc(S(=O)(=O)N(C)C)c1)c1ccccc1	> 42 µM (inactive)
COc1ccc(NC(=O)CSc2nccc(C)n2)cc1	> 42 µM (inactive)
CCOc1ccccc1C(=O)N(Cc1cccs1)C1CCS(=O)(=O)C1 (stereo unspecified)	> 42 µM (inactive)
Cc1c(C(=O)N2CCCC2)c(S(=O)(=O)Nc2cccc(Br)c2)c(C)n1C	> 42 µM (inactive)
CCCCC(O)(c1ccc(F)cc1)C(CN1CCOCC1)c1ccc(Cl)cc1 (stereo unspecified)	> 21 µM (inactive)
COCCn1c(N)c(N(Cc2ccccc2)C(=O)CN2C(=O)NC(C)(c3ccccc3)C2=O)c(=O)[nH]c1=O (stereo unspecified)	39.8 µM
CCn1c(SCc2nc3ccccc3s2)nnc1-c1ccccc1	> 42 µM (inactive)
COc1cc([N+](=O)[O-])cc(/C=N/NC(=O)c2cc(C)nc3ccccc23)c1O	> 42 µM (inactive)
NC(=O)CN1CCOCCN(CC(N)=O)CCOCC1	> 42 µM (inactive)
COc1cc(NC(=O)CN2CCN(CC(=O)Nc3ccccc3OC)CC2)cc(OC)c1	> 42 µM (inactive)
CNC(=O)c1ccccc1NC(=O)c1c(O)c2c([nH]c1=O)CCCC2	> 42 µM (inactive)
NC(=O)C1=C[C@@H](c2ccc(Br)cc2)C[C@@H](OCCCCO)O1	> 42 µM (inactive)
OC(COCc1cccs1)CN1CCCCCC1 (stereo unspecified)	> 42 µM (inactive)
O=C(Nc1cc(F)ccc1F)C1CCCO1 (stereo unspecified)	> 42 µM (inactive)
CNc1csc(C)c(C)c1=O	> 42 µM (inactive)

Structure (SMILES)	AC50
CC(C)NC(=O)COc1ccc(S(=O)(=O)N(C)Cc2ccccc2)cc1	> 42 µM (inactive)
Cc1ccnc(NC(=O)CNC(=O)c2ccc(Br)o2)c1	> 42 µM (inactive)
CCCS(=O)(=O)N1CCC(C(=O)N2CCc3ccccc3C2)CC1	> 42 µM (inactive)
O=C(NCc1csc(-c2cccs2)n1)Nc1ccc(F)cc1F	> 42 µM (inactive)
Cc1cc(C)c(S(=O)(=O)c2cccc(C)c2C)c(=O)[nH]1	> 42 µM (inactive)
COC(=O)c1cccc(NC(=O)CN(c2ccc3c(c2)OCO3)S(C)(=O)=O)c1C	> 42 µM (inactive)
Cc1cc(NC(=O)c2ccc(N3C(=O)CCC3=O)cc2)no1	> 42 µM (inactive)
CCOC(=O)C(C)(C)Sc1nc2c(cnn2-c2ccc(C)cc2)c(=O)[nH]1	> 42 µM (inactive)
C(=N\N1CCN(C2c3ccccc3-c3ccccc32)CC1)/c1ccncc1	> 42 µM (inactive)
COc1ccc(CN(CC(=O)NCc2ccco2)C(=O)CCC(=O)Nc2nccs2)cc1	> 42 µM (inactive)
COc1cc(/C=N/n2c(C3CCCCC3)n[nH]c2=S)cc(OC)c1O	> 42 µM (inactive)
N#C/C(=C\c1ccc(O)c(O)c1)C(=O)Nc1ccccc1	> 42 µM (inactive)
Cc1ccc(C)c(NC(=S)NC(=O)c2cncc(Br)c2)c1	> 42 µM (inactive)
O=C(COc1ccc(F)cc1Cl)N(Cc1nnc(-c2ccccc2Cl)o1)C1CC1	> 42 µM (inactive)
CCCNC(=O)Cn1sc2nc(C)cc(C)c2c1=O	> 42 µM (inactive)
COc1c(C)cc(S(=O)(=O)NC2CC(C)(C)NC(C)(C)C2)c(C)c1C	> 42 µM (inactive)
Cc1cc(C)c[n+](-c2nc3ccccc3nc2[N-]S(=O)(=O)c2ccc(Br)s2)c1	> 42 µM (inactive)
CC(C)(C)NC(=O)CC1C(=O)NCCN1Cc1c(F)cccc1Cl (stereo unspecified)	37.4 µM
COC(=O)[C@@H]1C[C@@H]2CC[C@@H](O)C[C@@H]2N1Cc1ccc(N2CCN(C)CC2)cc1	> 42 µM (inactive)
O=C(CSCc1ccc(Cl)cc1)N1CCCCC1	> 42 µM (inactive)
CC(=O)C1(c2ccccc2)CCNCC1	> 21 µM (inactive)
O=CNCCCc1nc2ccccc2n1CCc1ccccc1	> 42 µM (inactive)
O=C(c1ccccc1F)N1CCCc2ccccc21	> 42 µM (inactive)
